Measured values published in patent US10463660B2, “Benzoic acid, benzoic acid derivatives and heteroaryl carboxylic acid conjugates of oxymorphone, prodrugs, methods of making and use thereof” (KemPharm, Inc., priority 2014, dated 2019).

What was measured:
[1] = Intranasal PK profiles of conjugated oxymorphone in rats (released oxymorphone in plasma by LC-MS/MS); type: in vivo; settings: for %-AUC / %-Cmax / %-Tmax: 0.2 mg/kg oxymorphone equivalent, relative to the OM control; for AUC / Cmax / Tmax: conjugate equivalent to 0.2 mg/kg freebase oxymorphone, released oxymorphone in plasma
Protocol: Intranasal PK curves were determined for a number of prodrug conjugates of the present technology. Rats were intranasally administered at an amount of the conjugate equivalent to 0.2 mg/kg of freebase oxymorphone and the plasma concentrations of released oxymorphone were measured over time by LC-MS/MS.
All PK parameters from the above experiments were calculated and expressed as % change from the control (OM). These PK parameters included maximal plasma concentration (Cmax), area under curve (AUC), and time at which Cmax occurred (Tmax). These parameters are shown in Table 2 relative to the OM controls.

[2] = Oral PK profiles of conjugated oxymorphone in rats (released oxymorphone in plasma by LC-MS/MS); type: in vivo, Sprague-Dawley rats; settings: for %-AUC / %-Cmax / %-Tmax: 2 mg/kg oxymorphone equivalent, relative to the OM control; for AUC / Cmax / Tmax: conjugate equivalent to 2 mg/kg freebase oxymorphone, released oxymorphone in plasma
Protocol: Oral PK curves were determined for a number of prodrug conjugates of the present technology. Rats were orally administered at an amount of the conjugate equivalent to 2 mg/kg of freebase oxymorphone and the plasma concentrations of released oxymorphone were measured over time by LC-MS/MS.
All PK parameters from the above experiments were calculated and expressed as % change from the control (OM). These PK parameters included maximal plasma concentration (Cmax), area under curve (AUC), and time at which Cmax occurred (Tmax).

## CN1CC[C@]23c4c5ccc(O)c4O[C@H]2C(OC(=O)c2ccccc2)=CC[C@@]3(O)[C@H]1C5 [Conjugate 6-Bz-OM]
[1]
  %-AUC: 42%
  %-Cmax: 36%
  %-Tmax: 100%
  AUC: 35.1 ng·h/mL
  Cmax: 145.2 ng/mL
  Tmax: 4.8 min
[2]
  %-AUC: 78%
  %-Cmax: 67%
  %-Tmax: 129%
  AUC: 15.0 ng·h/mL
  Cmax: 6.4 ng/mL
  Tmax: 108 min

## CC(=O)Oc1ccccc1C(=O)Oc1ccc2c3c1OC1C(=O)CCC4(O)C(C2)N(C)CCC314 (stereo not drawn) [3-(2-AcO-Bz)-OM]
[2]
  %-AUC: 72%
  %-Cmax: 78%
  %-Tmax: 25%
  AUC: 22.5 ng·h/mL
  Cmax: 15.8 ng/mL
  Tmax: 15 min

## CC(C(=O)Oc1ccc2c3c1O[C@H]1C(=O)CC[C@@]4(O)[C@@H](C2)N(C)CC[C@]314)c1cccc(Oc2ccccc2)c1 (stereo partly drawn) [3-Fenoprofen-OM]
[2]
  %-AUC: 59%
  %-Cmax: 52%
  %-Tmax: 100%
  AUC: 14.8 ng·h/mL
  Cmax: 9.6 ng/mL
  Tmax: 36 min

## CN1CC[C@]23c4c5ccc(O)c4O[C@H]2C(OC(=O)/C=C/c2ccccc2)=CC[C@@]3(O)[C@H]1C5 [6-Cinnamate-OM]
[2]
  %-AUC: 77%
  %-Cmax: 59%
  %-Tmax: 225%
  AUC: 28.0 ng·h/mL
  Cmax: 11.4 ng/mL
  Tmax: 93 min

## CN1CC[C@]23c4c5ccc(O)c4O[C@H]2C(OC(=O)c2ccccc2O)=CC[C@@]3(O)[C@H]1C5 [6-(2-OH-Bz)-OM]
[2]
  %-AUC: 134%
  %-Cmax: 157%
  %-Tmax: 60%
  AUC: 50.6 ng·h/mL
  Cmax: 31.6 ng/mL
  Tmax: 45 min

## CN1CC[C@]23c4c5ccc(O)c4O[C@H]2C(OC(=O)c2cccc(N)c2)=CC[C@@]3(O)[C@H]1C5 [6-(3-ABz)-OM]
[2]
  %-AUC: 46%
  %-Cmax: 32%
  %-Tmax: 276%
  AUC: 16.7 ng·h/mL
  Cmax: 6.2 ng/mL
  Tmax: 114 min

## CN1CC[C@]23c4c5ccc(OC(=O)/C=C/c6ccccc6)c4O[C@H]2C(=O)CC[C@@]3(O)[C@H]1C5 [3-Cinnamate-OM]
[2]
  %-AUC: 190%
  %-Cmax: 236%
  %-Tmax: 136%
  AUC: 36.8 ng·h/mL
  Cmax: 19.0 ng/mL
  Tmax: 90 min

## CN1CC[C@]23c4c5ccc(OC(=O)c6ccccc6O)c4O[C@H]2C(=O)CC[C@@]3(O)[C@H]1C5 [3-(2-OH-Bz)-OM]
[1]
  %-AUC: 66%
  %-Cmax: 55%
  %-Tmax: 100%
  AUC: 65.9 ng·h/mL
  Cmax: 276.1 ng/mL
  Tmax: 4.8 min
[2]
  %-AUC: 72%
  %-Cmax: 74%
  %-Tmax: 62%
  AUC: 31.3 ng·h/mL
  Cmax: 17.5 ng/mL
  Tmax: 39 min

## COc1ccc(C(=O)OC2=CCC3(O)C4Cc5ccc(OC(=O)c6ccc(OC)cc6)c6c5C3(CCN4C)C2O6)cc1 (stereo not drawn) [3,6-(4-MeO-Bz)2-OM]
[1]
  %-AUC: 30%
  %-Cmax: 9%
  %-Tmax: 167%
  AUC: 24.6 ng·h/mL
  Cmax: 33.5 ng/mL
  Tmax: 8.4 min
[2]
  %-AUC: 110%
  %-Cmax: 121%
  %-Tmax: 35%
  AUC: 26.0 ng·h/mL
  Cmax: 10.6 ng/mL
  Tmax: 15 min

## CC(C(=O)OC1=CCC2(O)C3Cc4ccc(O)c5c4C2(CCN3C)C1O5)c1cccc(C(=O)c2ccccc2)c1 (stereo not drawn) [6-Ketoprofen-OM]
[2]
  %-AUC: 99%
  %-Cmax: 47%
  %-Tmax: 260%
  AUC: 20.6 ng·h/mL
  Cmax: 11.8 ng/mL
  Tmax: 39 min

## COc1ccc(C(=O)OC2=CC[C@@]3(O)[C@H]4Cc5ccc(O)c6c5[C@@]3(CCN4C)[C@H]2O6)cc1 [6-(4-MeO-Bz)-OM]
[2]
  %-AUC: 69%
  %-Cmax: 90%
  %-Tmax: 22%
  AUC: 12.2 ng·h/mL
  Cmax: 8.6 ng/mL
  Tmax: 15 min

## CN1CC[C@]23c4c5ccc(OC(=O)c6cc(-c7ccc(F)cc7F)ccc6O)c4O[C@H]2C(=O)CC[C@@]3(O)[C@H]1C5 [3-Diflunisal-OM]
[1]
  %-AUC: 131%
  %-Cmax: 41%
  %-Tmax: 200%
  AUC: 108.2 ng·h/mL
  Cmax: 151.5 ng/mL
  Tmax: 10.2 min
[2]
  %-AUC: 85%
  %-Cmax: 52%
  %-Tmax: 340%
  AUC: 17.6 ng·h/mL
  Cmax: 13.2 ng/mL
  Tmax: 51 min

## COc1ccc(C(=O)Oc2ccc3c4c2O[C@H]2C(=O)CC[C@@]5(O)[C@@H](C3)N(C)CC[C@]425)cc1 [3-(4-MeO-Bz)-OM]
[1]
  %-AUC: 76%
  %-Cmax: 61%
  %-Tmax: 100%
  AUC: 63.1 ng·h/mL
  Cmax: 244.9 ng/mL
  Tmax: 4.8 min
[2]
  %-AUC: 100%
  %-Cmax: 99%
  %-Tmax: 100%
  AUC: 43.2 ng·h/mL
  Cmax: 23.6 ng/mL
  Tmax: 63 min

## CN1CC[C@]23c4c5ccc(OC(=O)/C=C/c6ccccc6)c4O[C@H]2C(OC(=O)/C=C/c2ccccc2)=CC[C@@]3(O)[C@H]1C5 [3,6-(Cinnamate)2-OM]
[2]
  %-AUC: 38%
  %-Cmax: 43%
  %-Tmax: 50%
  AUC: 14.5 ng·h/mL
  Cmax: 8.7 ng/mL
  Tmax: 45 min

## COc1cc(C(=O)OC2=CC[C@@]3(O)[C@H]4Cc5ccc(O)c6c5[C@@]3(CCN4C)[C@H]2O6)ccc1O [6-Vanillate-OM]
[2]
  %-AUC: 56%
  %-Cmax: 65%
  %-Tmax: 97%
  AUC: 8.9 ng·h/mL
  Cmax: 5.0 ng/mL
  Tmax: 102 min

## COc1cc(C(=O)Oc2ccc3c4c2O[C@H]2C(=O)CC[C@@]5(O)[C@@H](C3)N(C)CC[C@]425)ccc1O [3-Vanillate-OM]
[2]
  %-AUC: 92%
  %-Cmax: 97%
  %-Tmax: 46%
  AUC: 14.7 ng·h/mL
  Cmax: 7.5 ng/mL
  Tmax: 48 min

## CN1CC[C@]23c4c5ccc(O)c4O[C@H]2C(OC(=O)c2cc(-c4ccc(F)cc4F)ccc2O)=CC[C@@]3(O)[C@H]1C5 [6-Diflunisal-OM]
[1]
  %-AUC: 25%
  %-Cmax: 11%
  %-Tmax: 100%
  AUC: 20.7 ng·h/mL
  Cmax: 39.1 ng/mL
  Tmax: 4.8 min
[2]
  AUC: 67.2 ng·h/mL
  Cmax: 50.6 ng/mL
  Tmax: 15 min

## CC(C(=O)Oc1ccc2c3c1O[C@H]1C(=O)CC[C@@]4(O)[C@@H](C2)N(C)CC[C@]314)c1cccc(C(=O)c2ccccc2)c1 (stereo partly drawn) [3-Ketoprofen-OM]
[2]
  %-AUC: 159%
  %-Cmax: 150%
  %-Tmax: 30%
  AUC: 49.7 ng·h/mL
  Cmax: 30.3 ng/mL
  Tmax: 18 min
